Marks after values point to notes of the source that are not given here.
Test system: T. ni moths
Assay: Oviposition choice (deterrence) bioassay on cabbage leaves
Assay type: in vivo, Trichoplusia ni
Conditions: Table 3; oviposition deterrence at 0.25%, 48 h
Procedure: (§1) Initial screening for feeding deterrent effects was conducted at 50 μg/cm^2 in feeding deterrent bioassays.
T. ni larvae were reared on normal diet from neonates (<24 h old) until pupation. Pupae were sexed and put in separate plastic containers until emergence. After eclosion, pairs of moths (one male and one female) were introduced into each cage with a control and a treated cabbage leaf. Pairs of moths (n=25) were used per treatment. Each leaf (approximately 100-110 cm^2) was sprayed with 0.5 mL of MeOH or a methanolic solution of the test chemical on each side. Eggs were counted on each cabbage leaf after 48 h.

Compound	OD (%), mean ± SE (n = 25-33)
CCOc1ccc(OCC)cc1 [3c{2, 2}, 1,4-Diethoxy benzene]	74.7 ± 13.3a %

Same assay, conditions: Table 6 summary class; 0.25%

Compound	Oviposition deterrency
CCOc1ccc(OCC)cc1 [drawing 17]	strong (Strong oviposition deterrency, >50%)
CCCOc1cccc(OCCC)c1 [drawing 18]	moderate (moderate, >25%)
CCCOc1ccc(OCCC)cc1 [drawing 22]	weak (weak, >10%)
C=CCOc1ccc(OCC=C)cc1 [drawing 23]	weak (weak, >10%)
C=CCOc1ccc(OCCCC)cc1 [drawing 24]	weak (weak, >10%)

Same assay, conditions: Table 11; oviposition deterrence at 0.25%; BL mark not explained

Compound	% deterrence
CCOc1ccc(OCC)cc1 [3c{2, 2}, 1,4-Diethoxy benzene]	75%
butyl eugenol	34 BL %

Same assay, conditions: Table 11; oviposition deterrence divided by mortality

Compound	Index = deterrence/mortality
CCOc1ccc(OCC)cc1 [3c{2, 2}, 1,4-Diethoxy benzene]	0.75
butyl eugenol	2.2

Same assay, conditions: Trichoplusia, 48 h, Table 3; oviposition deterrence at 0.25%, 48 h; read-out: OD (%), mean ± SE (n = 25-33)

Compound	pest or weed control at 0.25 %
CCOc1ccc(OCC)cc1 [3c{2, 2}, 1,4-Diethoxy benzene]	74.7%
CCCOc1ccc(OCCC)cc1 [3c{3,3}, 1,4-Dipropoxy benzene]	11.8 ± 13.1%
C=CCOc1ccc(OCCCC)cc1 [3c{6,4}, 1-allyloxy-4-butoxy benzene]	16.8 ± 13.8%
C=CCOc1ccc(OCC=C)cc1 [3c{6,6}, 1,4-Diallyloxy benzene]	14.1 ± 13.1%

Same assay, conditions: Trichoplusia, 48 h, Table 4; oviposition deterrence at 0.25%, 48 h; read-out: OD (%), mean ± SE (n = 25-33)

Compound	pest or weed control at 0.25 %
CCOc1cccc(OCC)c1 [3b{2,2}, 1,3-Diethoxy benzene]	3.4%
CCCOc1cccc(OCCC)c1 [3b{3,3}, 1,3-Dipropoxy benzene]	33%

Same assay, conditions: Trichoplusia, 48 h, Table 5; oviposition deterrence at 0.25%, 48 h; read-out: OD (%), mean ± SE (n = 25-33)

Compound	pest or weed control at 0.25 %
CCCCOc1ccccc1OCCCC [3a{4,4}, 1,2-Dibutoxy benzene]	19.6%
CC(C)CCOc1ccccc1OCCC(C)C [3a{5,5}, 1,2-Di-(3-methyl-butyloxy)benzene]	11.5%
C=CCOc1ccccc1OCC=C [3a{6,6}, 1,2-Diallyloxy benzene]	15%

Test system: third instar T. ni larvae
Assay: whole plant or invertebrate
Conditions: Table 3; concentration causing 50% mortality compared with the control
Procedure: as §1
Mortality was determined 24 h after spraying larvae directly with test solutions. Third instar T. ni larvae were sprayed in 90 mm×15 mm Petri dishes (Falcon) lined with Fisher Scientific filter paper (90 mm diameter). Small plastic hand spraying bottles (50 mL capacity) were used. Larvae were then transferred to Petri dishes (90 mm×15 mm) with a small piece of artificial diet. Each Petri dish contained 10 larvae. Three replicates, each consisting of 10 larvae, were used per treatment.

Compound	LC50
CCOc1ccc(OCC)cc1 [3c{2, 2}, 1,4-Diethoxy benzene]	0.03%

Same assay, conditions: Table 4; concentration causing 50% mortality

Compound	LC50
CCCOc1cccc(OCCC)c1 [3b{3,3}, 1,3-Dipropoxy benzene]	0.16%

Same assay, conditions: Table 11; at 0.25%

Compound	% mortality
CCOc1ccc(OCC)cc1 [3c{2, 2}, 1,4-Diethoxy benzene]	100%

Same assay, conditions: Trichoplusia, topical, 24 h, read-out: Mortality (%) N = 3 × 10, Table 8; at 0.25%

Compound	mortality at 0.25 %
C=CCOc1ccccc1OCCC [3a{3, 6}, 1-allyloxy-2-propoxybenzene]	17%
COc1cccc(OCCC(C)C)c1 [3b{1, 5}, 1-methoxy-3-(3-methyl-butyloxy)benzene]	30%
C=CCOc1ccc(OC)cc1 [3c{1, 6}, 1-allyloxy-4-methoxybenzene]	6%

Same assay, conditions: Trichoplusia, topical, 24 h, read-out: mortality (%) (n = 3 × 10), Table 3; at 0.25%, 24 h

Compound	mortality at 0.25 %
CCOc1ccc(OCC)cc1 [3c{2, 2}, 1,4-Diethoxy benzene]	100%
CCCOc1ccc(OCCC)cc1 [3c{3,3}, 1,4-Dipropoxy benzene]	22.6%
C=CCOc1ccc(OCCCC)cc1 [3c{6,4}, 1-allyloxy-4-butoxy benzene]	10%
C=CCOc1ccc(OCC=C)cc1 [3c{6,6}, 1,4-Diallyloxy benzene]	16%

Same assay, conditions: Trichoplusia, topical, 24 h, read-out: mortality (%) (n = 3 × 10), Table 4; at 0.25%, 24 h

Compound	mortality at 0.25 %
CCOc1cccc(OCC)c1 [3b{2,2}, 1,3-Diethoxy benzene]	36.7%
CCCOc1cccc(OCCC)c1 [3b{3,3}, 1,3-Dipropoxy benzene]	76.7%

Same assay, conditions: Trichoplusia, topical, 24 h, read-out: mortality (%) (n = 3 × 10), Table 5; at 0.25%, 24 h

Compound	mortality at 0.25 %
CCCCOc1ccccc1OCCCC [3a{4,4}, 1,2-Dibutoxy benzene]	10%
CC(C)CCOc1ccccc1OCCC(C)C [3a{5,5}, 1,2-Di-(3-methyl-butyloxy)benzene]	40%
C=CCOc1ccccc1OCC=C [3a{6,6}, 1,2-Diallyloxy benzene]	20%

Same assay, conditions: contact toxicity to larvae; negative or zero values replaced by 0.1 for the index (footnote b)

Compound	% mortality
C=CCOc1ccccc1OCCC [3a{3, 6}, 1-allyloxy-2-propoxybenzene]	10-17 ^a %
CCOc1cccc(OCC)c1 [3b{2,2}, 1,3-Diethoxy benzene]	37%
CCCOc1cccc(OCCC)c1 [3b{3,3}, 1,3-Dipropoxy benzene]	77%
CCOc1ccc(OCC)cc1 [3c{2, 2}, 1,4-Diethoxy benzene]	100%
CCCOc1ccc(OCCC)cc1 [3c{3,3}, 1,4-Dipropoxy benzene]	23%
C=CCOc1ccc(OCC=C)cc1 [3c{6,6}, 1,4-Diallyloxy benzene]	16%

Same assay, conditions: in vivo

Compound	% mortality
butyl eugenol	15%

Test system: third instar T. ni larvae
Assay: Leaf disk choice feeding deterrence bioassay
Assay type: in vivo, Trichoplusia ni
Conditions: Table 3, 1,4-dialkoxybenzenes; feeding deterrence at 50 μg/cm^2
Source text: Cabbage plants (Brassica oleraceae var. Stonehead) used in the bioassays were routinely grown in plastic pots with a mixture of sandy loam soil and peat moss (4:1) in a greenhouse at the University of British Columbia, Vancouver, BC, Canada. Leaves were collected from cabbage plants that were 5-6 weeks old.
T. ni larvae and moths were obtained from a long established colony (>50 generations) maintained on an artificial diet, Velvetbean Caterpillar Diet No. F9796 [Bio-Sery Inc. (Frenchtown, NIL)] in the insectary of the University of British Columbia (UBC).
as §1
Larvae were given the choice of feeding on two leaf disks, one treated with 10 μL of a solution of the test substance painted on each side and the other treated with a carrier solvent alone. The number of larvae was 25 per treatment.
Feeding deterrence data (percent) for initial screening concentration were analyzed by analysis of variance (ANOVA) after arcsin transformation using statistics software (Statistix 7. Analytical Software, Statistix 7 for Windows 95, 98, NT, 2000. Analytical Software, Tallahassee).

Compound	FD (%), mean ± SE (n = 25)
COc1ccc(O)cc1 [2c{1}, 4-Methoxy phenol]	feeding stimulants
CCOc1ccc(O)cc1 [2c{2}, 4-Ethoxy phenol]	weak feeding deterrent

Same assay, conditions: Table 6 summary class; 50 μg/cm^2

Compound	Feeding deterrency
CCOc1ccc(OCC)cc1 [drawing 17]	strong (Strong feeding deterrency, >80%)
CCCOc1cccc(OCCC)c1 [drawing 18]	strong (Strong feeding deterrency, >80%)
CCCOc1ccc(OCCC)cc1 [drawing 22]	strong (Strong feeding deterrency, >80%)
C=CCOc1ccc(OCC=C)cc1 [drawing 23]	strong (Strong feeding deterrency, >80%)
C=CCOc1ccc(OCCCC)cc1 [drawing 24]	strong (Strong feeding deterrency, >80%)

Same assay, conditions: Trichoplusia, foliar, Table 3, 1,4-dialkoxybenzenes; feeding deterrence at 50 μg/cm^2; read-out: FD (%), mean ± SE (n = 25)

Compound	pest or weed control at 50 µg/cm2, 50 µg/cm2
COc1ccc(O)cc1 [2c{1}, 4-Methoxy phenol]	-26.5 ± 18.6%
CCOc1ccc(O)cc1 [2c{2}, 4-Ethoxy phenol]	29.8 ± 18.2%
CCOc1ccc(OCC)cc1 [3c{2, 2}, 1,4-Diethoxy benzene]	80.8 ± 11.3%
CCCOc1ccc(OCCC)cc1 [3c{3,3}, 1,4-Dipropoxy benzene]	96 ± 2.8%
C=CCOc1ccc(OCCCC)cc1 [3c{6,4}, 1-allyloxy-4-butoxy benzene]	84 ± 10.7%
C=CCOc1ccc(OCC=C)cc1 [3c{6,6}, 1,4-Diallyloxy benzene]	96.9 ± 3.6%

Same assay, conditions: Trichoplusia, foliar, Table 4, 1,3-dialkoxybenzenes; feeding deterrence at 50 μg/cm^2; read-out: FD (%), mean (SE (n = 25))

Compound	pest or weed control at 50 µg/cm2, 50 µg/cm2
CCOc1cccc(OCC)c1 [3b{2,2}, 1,3-Diethoxy benzene]	89.4 ± 8.3%
CCCOc1cccc(OCCC)c1 [3b{3,3}, 1,3-Dipropoxy benzene]	96.9 ± 3.1%

Same assay, conditions: Trichoplusia, foliar, Table 5, 1,2-dialkoxybenzenes; feeding deterrence at 50 μg/cm^2; read-out: FD (%), mean ± SE (n = 25)

Compound	pest or weed control at 50 µg/cm2, 50 µg/cm2
CCCCOc1ccccc1OCCCC [3a{4,4}, 1,2-Dibutoxy benzene]	56.4 ± 13.8%
CC(C)CCOc1ccccc1OCCC(C)C [3a{5,5}, 1,2-Di-(3-methyl-butyloxy)benzene]	69.9 ± 11.5%
C=CCOc1ccccc1OCC=C [3a{6,6}, 1,2-Diallyloxy benzene]	70.4 ± 13.2%

Same assay, conditions: Trichoplusia, foliar, Table 8; 50 μg/cm^2; read-out: F.D (%) Mean ± SE N = 25

Compound	pest or weed control at 50 µg/cm2, 50 µg/cm2
C=CCOc1ccccc1OCCC [3a{3, 6}, 1-allyloxy-2-propoxybenzene]	96 ± 3%
COc1cccc(OCCC(C)C)c1 [3b{1, 5}, 1-methoxy-3-(3-methyl-butyloxy)benzene]	89 ± 7%
C=CCOc1ccc(OC)cc1 [3c{1, 6}, 1-allyloxy-4-methoxybenzene]	62 ± 15%

Same assay, conditions: Trichoplusia, foliar, feeding deterrence (FD); Table 12, non-toxic feeding deterrents; read-out: % deterrence

Compound	pest or weed control at 50 µg/cm2
C=CCOc1ccccc1OCCC [3a{3, 6}, 1-allyloxy-2-propoxybenzene]	96%
CCOc1cccc(OCC)c1 [3b{2,2}, 1,3-Diethoxy benzene]	89%
CCCOc1cccc(OCCC)c1 [3b{3,3}, 1,3-Dipropoxy benzene]	97%
CCOc1ccc(OCC)cc1 [3c{2, 2}, 1,4-Diethoxy benzene]	81%
CCCOc1ccc(OCCC)cc1 [3c{3,3}, 1,4-Dipropoxy benzene]	96%
C=CCOc1ccc(OCC=C)cc1 [3c{6,6}, 1,4-Diallyloxy benzene]	97%

Same assay, conditions: feeding deterrence DC50; unit not given in Table 12

Compound	DC50
C=CCOc1ccccc1OCCC [3a{3, 6}, 1-allyloxy-2-propoxybenzene]	12-16 ^a μg/cm^2
CCOc1cccc(OCC)c1 [3b{2,2}, 1,3-Diethoxy benzene]	29 μg/cm^2
CCCOc1cccc(OCCC)c1 [3b{3,3}, 1,3-Dipropoxy benzene]	27 μg/cm^2
CCOc1ccc(OCC)cc1 [3c{2, 2}, 1,4-Diethoxy benzene]	26 μg/cm^2
CCCOc1ccc(OCCC)cc1 [3c{3,3}, 1,4-Dipropoxy benzene]	20 μg/cm^2
C=CCOc1ccc(OCC=C)cc1 [3c{6,6}, 1,4-Diallyloxy benzene]	24 μg/cm^2

Test system: T. ni moths
Assay: Oviposition choice (deterrence) bioassay on cabbage leaves
Assay type: in vivo, Trichoplusia ni
Conditions: Trichoplusia, 48 h, Table 8; at 0.25%; read-out: OD (%) Mean ± SE N = 35-40

Compound	pest or weed control at 0.25 %
COc1cccc(OCCC(C)C)c1 [3b{1, 5}, 1-methoxy-3-(3-methyl-butyloxy)benzene]	25 to 30%

— patent US9125406B2, “Methods and compositions for control of cabbage looper, trichoplusia ni” (Simon Fraser University, priority 2008, dated 2015)
